Here are results for one compound from PMC4050194 (FEBS Open Bio, 2014).

For this assay, the target named is T1, Cra (FruR) protein of Pseudomonas putida (Cra^PP) (Pseudomonas putida, UniProt Q88PQ6).
T1 sequence (Q88PQ6 1-331): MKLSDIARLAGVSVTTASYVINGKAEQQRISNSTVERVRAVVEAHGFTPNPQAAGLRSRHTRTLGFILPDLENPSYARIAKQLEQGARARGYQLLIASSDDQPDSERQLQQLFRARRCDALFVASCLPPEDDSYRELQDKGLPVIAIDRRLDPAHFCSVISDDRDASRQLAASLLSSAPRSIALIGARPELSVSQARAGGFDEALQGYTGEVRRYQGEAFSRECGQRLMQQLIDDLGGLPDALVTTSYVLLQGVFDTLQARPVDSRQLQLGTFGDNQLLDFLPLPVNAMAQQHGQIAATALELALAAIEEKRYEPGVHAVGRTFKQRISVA
The assay can be described thus: ITC with purified Cra. In kind it is binding.

With `O=P(O)(O)OCC1(O)O[C@H](CO)[C@@H](O)[C@@H]1O` (stereo partly shown) [F1P, fructose 1-phosphate], the Kd is roughly 200 nM.

A word on the Kd: it is a measure of binding affinity in units of concentration.
